From patent publication US7176219B2, “Salts of quinuclidine derivative” (priority 2005, dated 2007)

Tests used:
muscarinic M3 receptors [1] = molecular target: muscarinic M3 receptors (Homo sapiens, UniProt P20309); conditions: made public in Patent document 1 (EP 0 801 067); cited from earlier work
[2] = Evaluation of hygroscopicity (dynamic steam adsorption, weight change); format: physicochemical; conditions: for Weight Change (%): within the range 5–95% relative humidity; for Deliquescence during water absorption measurement: 5–95% relative humidity
Description: A sample (about 5 mg) was placed in a purpose-made quartz holder, and the sample weight at the respective humidity was continuously measured and recorded in the following conditions. The apparatus including data processing was operated according to the method and procedure directed in each device. (Apparatus: dynamic steam adsorption measuring apparatus DVS Advantage, made by SMS)

[3] = Evaluation of stability (1): forced degradation test, impurities by LC; conditions: for Change from Impurity Amt. before Storage (%), Condition 3 / Change from Impurity Amt. before Storage (%), Condition 2: 25° C., 5 days; for Change from Impurity Amt. before Storage (%), Condition 3: NUV (near ultraviolet ray) irradiated; for Change from Impurity Amt. before Storage (%), Condition 3 / Change from Impurity Amt. before Storage (%), Condition 1: tightly closed; for Change from Impurity Amt. before Storage (%), Condition 2: relative humidity 93%, open; for Change from Impurity Amt. before Storage (%), Condition 1: 120° C., 24 hours
Description: A sample after storage was dissolved in 1 mL of MeOH and used as a sample solution. The sample solution was diluted 100 times with MeOH and used as a standard solution. Impurities contained in the sample solution was quantitatively analyzed using the standard solution. In this determination, the apparatus including data processing was operated according to the method and procedure directed in each device. (Apparatus: LC-MSD 1100 series, made by Agilent)

[4] = Evaluation of stability (2): stress testing, impurities by LC, UV at 210 nm; format: physicochemical
Description: A sample (about 5 mg) was weighed in a glass mess-flask of 10 mL and applied to a stress testing in the following storage conditions. • Condition 1: 5° C.—shading—tightly closed • Condition 2: 40° C.—relative humidity 75%—open • Condition 3: 60° C.—shading—tightly closed • Condition 4: 80° C.—shading—tightly closed • Condition 5: 25° C.—D65 (1000 lux)—tightly closed
Chemical stability: After storage, MeOH was placed in the mess-flask containing the sample up to the level of the marked line, and the resulting solution was used as a sample solution. The sample solution was diluted 100 times with MeOH to prepare a standard solution, which was used in determination of impurities contained in the sample solution. Detection of the impurities was performed by means of UV at 210 nm. […] (Apparatus: LC-MSD 1100 series, made by Agilent)

muscarinic M3 receptors [5] = molecular target: T1, muscarinic M3 receptors (Cavia porcellus, UniProt H0W1Z3); test: Functional affinity estimate for muscarinic M3 receptors in bladders (carbachol-induced intracellular Ca2+ change in bladder smooth muscle cells); format: cell-based, guinea pig
T1 construct: Smooth muscle cells were isolated from guinea pig bladders; from tissue; host or cells: smooth muscle cells freshly isolated from guinea pig bladder
T1 sequence (H0W1Z3 1-590): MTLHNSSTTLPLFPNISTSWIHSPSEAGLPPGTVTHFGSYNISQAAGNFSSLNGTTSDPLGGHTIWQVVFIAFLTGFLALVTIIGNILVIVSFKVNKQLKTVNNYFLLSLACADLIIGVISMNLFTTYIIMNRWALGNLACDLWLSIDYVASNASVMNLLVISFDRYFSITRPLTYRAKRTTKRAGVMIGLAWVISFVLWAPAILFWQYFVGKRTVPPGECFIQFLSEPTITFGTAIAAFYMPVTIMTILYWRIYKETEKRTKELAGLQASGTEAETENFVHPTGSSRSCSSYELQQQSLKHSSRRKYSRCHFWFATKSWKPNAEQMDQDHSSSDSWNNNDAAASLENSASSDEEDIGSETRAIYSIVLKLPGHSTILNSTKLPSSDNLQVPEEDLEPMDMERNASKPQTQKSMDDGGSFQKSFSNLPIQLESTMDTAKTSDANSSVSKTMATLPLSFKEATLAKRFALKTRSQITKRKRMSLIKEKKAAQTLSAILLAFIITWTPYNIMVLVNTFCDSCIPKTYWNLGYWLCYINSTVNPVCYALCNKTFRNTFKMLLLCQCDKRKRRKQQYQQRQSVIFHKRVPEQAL
Description: Below, the method is described in brief.
Smooth muscle cells were isolated from guinea pig bladders from which the […] had been removed, loaded with a calcium-sensitive fluorescent dye Fura2 and suspended in phenol red-free Hanks' buffer solution supplemented with 20 mM HEPES (pH 7.4) and 0.1% bovine serum albumin. An aliquot of cell suspension (490 μL) was continuously stirred, kept at 28° C. and monitored for the ratio of fluorescence (500 nm) at 340 nm excitation to that at 380 nm excitation. To each aliquot, 5 μL of test compound and carbachol solutions were serially added with a 2 minute interval, and the peak increase in the ratio over the level just before stimulation was used in data analysis.

[6] = tested on: carbachol-evoked bladder contraction; test: Inhibitory effects on carbachol-evoked bladder contraction in anesthetized mice; format: in vivo; conditions: anesthetized female mice, i.v., carbachol 10 μg/kg, intravesical pressure
Description: The method for determination of inhibitory effects of test compounds on bladder contraction is described as follows.
Female mice, weighing 30 to 35 g, were anesthetized with a sub-lethal dose (75 mg/kg, i.v.) of sodium pentobarbital and placed supine on a heating pad to maintain the body temperature. A polyethylene catheter (PE10) was cannulated to the bladder via the urethra and secured by purse-string suture at the external urethral opening. Another catheter was inserted into the femoral vein for injections of drug solutions at a […]. The bladder catheter was connected to a pressure transducer through a three-way stopcock valve. The bladder was emptied by drainage of urine through the catheter, and then distended with about 100 μL of physiological saline, and the intravesical pressure was measured.
After intravesical pressure stabilization, the muscarinic agonist carbachol (10 μg/kg) was administered repeatedly with an interval of 15 minutes or longer. By this means, bladder contractions occurred in a reproducible manner over 2 hours without deterioration of physical conditions. After three responses to carbachol were obtained, a test compound injection was followed by carbachol administration 10 minutes later and this procedure was repeated with increasing doses of the test compound. In four or five mice per test compound, the percent inhibition of means of prior drug responses was obtained and the dose of test compound required for 50% inhibition (ID50) was estimated by the linear regression analysis. Mice showing rhythmic bladder constriction were not used for the data analysis.

[7] = Hygroscopicity and long-term storage of the known hydrochloride (disclosure section); format: physicochemical
[8] = Condition 1: 5° C., shading, tightly closed, 1 month
[9] = Condition 1: 5° C., shading, tightly closed, 2 months
[10] = Condition 1: 5° C., shading, tightly closed, 2 weeks
[11] = Condition 2: 40° C., relative humidity 75%, open, 1 month
[12] = Condition 2: 40° C., relative humidity 75%, open, 2 months
[13] = Condition 2: 40° C., relative humidity 75%, open, 2 weeks
[14] = Condition 3: 60° C., shading, tightly closed, 1 month
[15] = Condition 3: 60° C., shading, tightly closed, 2 months
[16] = Condition 3: 60° C., shading, tightly closed, 2 weeks
[17] = Condition 4: 80° C., shading, tightly closed, 1 month
[18] = Condition 4: 80° C., shading, tightly closed, 2 months
[19] = Condition 4: 80° C., shading, tightly closed, 2 weeks
[20] = Condition 5: 25° C., D65 (1000 lux), tightly closed, 1 month
[21] = Condition 5: 25° C., D65 (1000 lux), tightly closed, 2 months
[22] = Condition 5: 25° C., D65 (1000 lux), tightly closed, 2 weeks
[23] = 25° C., listed as Compound A hydrochloride, hydrochloride

Chain of muscarinic M3 receptors (Homo sapiens, UniProt P20309) (P20309 whole entry): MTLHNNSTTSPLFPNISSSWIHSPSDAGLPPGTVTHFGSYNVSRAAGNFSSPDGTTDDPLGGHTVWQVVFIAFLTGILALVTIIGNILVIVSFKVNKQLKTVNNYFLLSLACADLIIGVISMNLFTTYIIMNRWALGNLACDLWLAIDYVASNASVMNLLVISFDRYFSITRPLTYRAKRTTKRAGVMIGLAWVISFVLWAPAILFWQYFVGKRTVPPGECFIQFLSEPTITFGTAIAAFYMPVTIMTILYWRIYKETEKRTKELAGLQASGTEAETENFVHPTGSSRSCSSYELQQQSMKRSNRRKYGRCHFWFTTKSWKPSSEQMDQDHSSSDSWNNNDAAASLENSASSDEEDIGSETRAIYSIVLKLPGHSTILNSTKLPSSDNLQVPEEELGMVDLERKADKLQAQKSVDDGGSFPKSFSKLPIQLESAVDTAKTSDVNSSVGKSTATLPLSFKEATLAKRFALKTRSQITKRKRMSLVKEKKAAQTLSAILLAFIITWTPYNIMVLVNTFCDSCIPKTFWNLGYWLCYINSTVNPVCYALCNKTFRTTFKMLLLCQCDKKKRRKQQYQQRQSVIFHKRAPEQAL

SMILES	Change from Impurity Amt. before Storage (%), Condition 3 [3]	Change from Impurity Amt. before Storage (%), Condition 2 [3]	Change from Impurity Amt. before Storage (%), Condition 1 [3]	Impurities before Storage (%) [3]	Impurities (%) [4, 8]	Impurities (%) [4, 9]	Impurities (%) [4, 10]	Impurities (%) [4, 11]	Impurities (%) [4, 12]	Impurities (%) [4, 13]	Impurities (%) [4, 14]	Impurities (%) [4, 15]	Impurities (%) [4, 16]	Impurities (%) [4, 17]	Impurities (%) [4, 18]	Impurities (%) [4, 19]	Impurities (%) [4, 20]	Impurities (%) [4, 21]	Impurities (%) [4, 22]	further results
O=C(O[C@H]1CN2CCC1CC2)N1CCc2ccccc2[C@H]1c1ccccc1 [Compound A, (−)-(3R)-quinuclidin-3-yl(1R)-1-phenyl-1,2,3,4-tetrahydroisoquinoline-2-carboxylate]	–	–	–	–	–	–	–	–	–	–	–	–	–	–	–	–	–	–	–	Affinity and selectivity for muscarinic M3 receptors (muscarinic M3 receptors [1]): displays an affinity and selectivity for muscarinic M3 receptors
O=C(O[C@H]1CN2CCC1CC2)N1CCc2ccccc2[C@H]1c1ccccc1 [Example 1, (−)-(3R)-quinuclidin-3-yl(1R)-1-phenyl-1,2,3,4-tetrahydroisoquinoline-2-carboxylate (−)-(2S,3S)-tartrate]	−0.3%	−0.1%	0.2%	1.5%	0.00%	0.00%	0.00%	0.00%	0.00%	0.00%	0.00%	0.00%	0.00%	0.00%	0.00%	0.00%	0.00%	0.00%	0.00%	Weight Change (%) ([2]; 25° C.): <1%; IC50 (muscarinic M3 receptors [5]; IC50 (ng/mL), inhibition of carbachol-induced Ca2+ increase, guinea pig bladder smooth muscle cells, Fura2): 6.62 nM; Ki (muscarinic M3 receptors [5]; Ki (nM), IC50 converted by Cheng-Prusoff equation based on EC50 of carbachol): 0.68 ± 0.21 nM; ID50 (dose required for 50% inhibition of bladder contraction) [6]: 0.079 mg/kg
Cl.O=C(O[C@H]1CN2CCC1CC2)N1CCc2ccccc2[C@@H]1c1ccccc1 [Reference Example 2, Compound A hydrochloride, reference compound]	2.0%	3.8%	0.2%	0.1%	0.21%	0.18%	0.25%	8.19%	9.20%	8.72%	0.22%	0.24%	0.34%	0.39%	0.47%	0.43%	2.38%	3.68%	1.73%	Deliquescence during water absorption measurement ([2]; 25° C., hydrochloride): deliquescent; Deliquescence during water absorption measurement [2, 23]: accompanied by deliquescence; Relative humidity at which rapid moisture uptake began ([2]; 25° C., FIG. 1): about 65 % relative humidity; Weight Change (%) ([2]; 25° C., hydrochloride): > 35%; Weight Change (%) [2, 23]: exceeded 35%; Weight gain by absorption of moisture ([2]; at 75% or more relative humidity): ≥ 15%; Stability to humidity ([3]; Condition 2 in Test Example 2 and Condition 2 in Test Example 3): not so stable to humidity; Stability to light ([3]; Condition 3 in Test Example 2 and Condition 5 in Test Example 3): not so stable; Increase of impurities during storage ([3]; Table 2 and Table 3): impurities increased during storage; Impurities during long-term storage ([7]; long-term storage): increase of impurities during long-term storage; Hygroscopicity in a conventional environment ([7]; relative humidity of 70% (room temperature)): so hygroscopic as to deliquesce
